Laboratory results from patent US9266911B2, “Camptothecin derivative, and preparation method thereof, and pharmaceutical composition and application” (priority 2011, dated 2016).
Converted amounts (≈) assume the structure as drawn. “And” between values parts separate entries of the source, which are not always exact repeats. Equal values may be shown once. Read-outs that look alike come from different tables or passages of the source.

What was measured:
[1] = test system: HCT116 (colon cancer) cells; test: CellTiter-Glo cell viability assay, HCT116 cells; type: cell-based; conditions: for viability at 0.1 µM / viability at 1 µM / viability at 10 µM: Homo sapiens, read-out: HCT116 cell viability after drug treatment for 48 hours
Protocol: (§1) Using the CellTiter-Glo kit provided by Promega Corporation, cell viability assay was performed on cancer cell lines to evaluate the ability of a compound to kill cancer cells in the in-vitro experiments. The kit measures the ATP levels by an enzymatic Luciferase assay. Normal viable cells will produce a certain level of ATP in metabolism. The enzymic reaction between the ATP product and the luciferase will emit a certain level of luminescent signal, which is captured by a luminometer and recorded as a certain luminescent read. […] When using this method to evaluate the anti-cancer activity of a compound, a certain concentration of an anti-cancer drug is added to the same amount of viable cancer cells, and the luminescent signal reading is acquired at a certain time point via CellTiter-Glo kits. […] Detailed procedure is as follows: a certain amount of small cell lung cancer cells (ATCC catalog No. H446), breast cancer cells (ATCC catalog No. MDAMB231) or colon cancer cells (ATCC catalog No. HCT116) are seeded in 96 wells with the same cell-culture medium, then respectively treated with WQ1001 and other anti-cancer drugs for a time course of 24, 48, and 72 hours. At the respective time points, the cancer cells are mixed with CellTiter-Glo reagents for 1 hour and the corresponding luminescent signals are recorded. Since the luminescent signal reading is proportional to the amount of viable cancer cells, the luminescent signal reading can be translated into the amount of viable cancer cells correspondingly. The cell livability rate is obtained by dividing the amount of viable cancer cells after treated with a certain concentration of anti-cancer drug by the amount of viable cancer cells of the Control Group which are not treated with the drug.

[2] = test system: H446 (small cell lung cancer) cells; test: CellTiter-Glo cell viability assay, H446 cells; type: cell-based, human; conditions: for viability at 0.1 µM / viability at 1 µM / viability at 10 µM: Homo sapiens, NCI-H446
Protocol: as §1

[3] = test system: MDAMB231 (breast cancer) cells; test: CellTiter-Glo cell viability assay, MDAMB231 cells; type: cell-based; conditions: 48 hours; for viability at 0.1 µM / viability at 1 µM / viability at 10 µM: Homo sapiens, read-out: MDAMB231 cell viability after drug treatment; for viability at 0.1 µM: MDA-MB-231, 0.1 μM; for viability at 1 µM: MDA-MB-231, 1.0 μM; for viability at 10 µM: MDA-MB-231, 10 μM
Protocol: as §1

[4] = Lactone ring stability (lactone ring conservation rate by HPLC in pH 7.4 buffer); type: physicochemical; conditions: lactone ring conservation rate by HPLC after placing in buffer solution of pH 7.4
Protocol: (§2) Table 15 lists comparison of properties between the representative compounds of the present invention and several existing CPT derivatives. In the test, the lactone ring stability was characterized by lactone ring conservation rate measured by HPLC (liquid chromatogram) after placing the test compounds in buffer solution of pH 7.4. The anticancer activity was characterized by viability of H446 cancer cells at 10 μM drug concentration. From the Table, one can learn the differences in water-solubility, lactone ring stability and toxicology of the compounds of the present invention.

[5] = Water-solubility; type: physicochemical; conditions: for solubility: water
Protocol: as §2

[6] = biological target: human serum album (Homo sapiens, UniProt P02768); conditions: physiological condition; cited from earlier work
[7] = test system: human colon cancer HT-29 nude mouse xenograft; test: In vivo antitumor efficacy, HT-29 nude mouse xenograft model; conditions: 35 mg/kg
[8] = test system: human breast cancer MCF-7 nude mouse xenograft; test: In vivo antitumor efficacy, MCF-7 nude mouse xenograft model; conditions: 35 mg/kg
[9] = test system: human multiple myeloma NCI-H929 nude mouse xenograft; test: In vivo antitumor efficacy, NCI-H929 nude mouse xenograft model; conditions: 10 mg/kg (Table 23), intraperitoneal
Protocol: The human multiple myeloma NCI-H929 cells were grafted to nude mice. […] Two days after tumor cell implantation, the drugs were administered by intraperitoneal injection once every 4 days for a total of 3 injections (on Day 2, 6, 10 after cancer cell implantation). The body weight was measured every 2 days.

[10] = test system: human small cell lung cancer NCI-H446 nude mouse xenograft; test: In vivo antitumor efficacy, NCI-H446 nude mouse xenograft model
Protocol: The drugs were administered by intravenous injection.
WQ1001 was administered by I.V. injection once every other day for 3 consecutive times, followed by 7 days' rest without drug administration, then one more circle was performed, for a total of 6 times of administration.

[11] = H446 cells, 0.1 μM, 48 hours, read-out: H446 cell viability after drug treatment for 48 hours
[12] = H446 cells, 1.0 μM, 48 hours, read-out: H446 cell viability after drug treatment for 48 hours
[13] = H446 cells, 10 μM, 48 hours, read-out: H446 cell viability after drug treatment for 48 hours
[14] = viability of H446 cancer cells at 10 μM drug concentration (Table 15), read-out: Cancer cell viability
[15] = viability of H446 cancer cells at 10 μM drug concentration (Table 15)
[16] = topotecan 10 mg/kg i.v., D0, 4, 7, 11, 14, 17, D22

human serum album, sequence (P02768 25-609): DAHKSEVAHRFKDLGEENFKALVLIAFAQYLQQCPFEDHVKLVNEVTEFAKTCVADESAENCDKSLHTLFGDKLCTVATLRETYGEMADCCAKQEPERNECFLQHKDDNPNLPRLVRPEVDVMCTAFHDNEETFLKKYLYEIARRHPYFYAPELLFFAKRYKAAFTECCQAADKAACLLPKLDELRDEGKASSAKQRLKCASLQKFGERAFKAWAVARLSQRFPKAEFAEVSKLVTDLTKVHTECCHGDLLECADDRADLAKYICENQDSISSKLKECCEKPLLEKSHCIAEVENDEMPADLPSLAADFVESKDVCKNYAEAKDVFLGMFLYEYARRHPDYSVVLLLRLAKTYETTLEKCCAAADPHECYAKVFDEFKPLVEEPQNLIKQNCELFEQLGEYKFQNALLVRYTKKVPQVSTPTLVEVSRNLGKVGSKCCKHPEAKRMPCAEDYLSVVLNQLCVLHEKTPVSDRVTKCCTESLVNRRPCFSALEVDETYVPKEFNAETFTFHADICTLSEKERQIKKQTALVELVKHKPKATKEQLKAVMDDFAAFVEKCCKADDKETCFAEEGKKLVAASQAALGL

## CC[C@@]1(O)C(=O)OCc2c1cc1n(c2=O)Cc2cc3cc(O)ccc3nc2-1 [10-hydroxyl CPT, 10-Hydroxy-CPT (SN22)]
[1]; HCT-116, 0.1 μM, 48 hours
  viability at 0.1 µM: 15%
[1]; HCT-116, 1.0 μM, 48 hours
  viability at 1 µM: 1%
[1]; HCT-116, 10 μM, 48 hours
  viability at 10 µM: 9%
[2]; [11]
  viability at 0.1 µM: 72%
[2]; [12]
  viability at 1 µM: 30%
[2]; [13]
  viability at 10 µM: 24%
[3]
  viability at 0.1 µM: 53%
  viability at 1 µM: 40%
  viability at 10 µM: 18%

## CC[C@@]1(O)C(=O)OCc2c1cc1n(c2=O)Cc2cc3ccccc3nc2-1 [CPT, Camptothecin]
[4]
  Lactone ring stability: <50%
[1]; 1.0 μM
  HCT116 cell viability after drug treatment for 48 hours: 82%
[1]; HCT-116, 48 h, 0.1 μM
  viability at 0.1 µM: 107%
[1]; HCT-116, 48 h, 1.0 μM
  viability at 1 µM: 76%
[5]
  solubility: < 100 µg/mL
[2]; [11]
  viability at 0.1 µM: 65%
[2]; [12]
  viability at 1 µM: 51%
[2]; [13]
  viability at 10 µM: 24%
[2]; [14]
  viability at 10 µM: < 30%
[3]
  viability at 0.1 µM: 13%
  viability at 1 µM: 5%
  viability at 10 µM: 3%

## CC[C@@]1(OP(=O)(O)O)C(=O)OCc2c1cc1n(c2=O)Cc2cc3ccccc3nc2-1 [CPT-20(S)-phosphate]
[4]
  Lactone ring stability: >90%
[5]
  Water-solubility: >10000 µg/mL
[2]; [15]
  Cancer cell viability: >85%

## CCc1c2c(nc3ccc(O)cc13)-c1cc3c(c(=O)n1C2)COC(=O)[C@]3(O)CC [SN38]
[1]; HCT-116, 48 h, 0.1 μM
  viability at 0.1 µM: 5%
[1]; HCT-116, 48 h, 1.0 μM
  viability at 1 µM: 2%
[1]; HCT-116, 48 h, 10 μM
  viability at 10 µM: 6%
[2]; [11]
  viability at 0.1 µM: 79%
[2]; [12]
  viability at 1 µM: 60%
[2]; [13]
  viability at 10 µM: 28%
[3]
  viability at 0.1 µM: 48%
  viability at 1 µM: 33%
  viability at 10 µM: 20%

## CCC(O)(C(=O)O)c1cc2n(c(=O)c1CO)Cc1cc3ccccc3nc1-2 (stereo not drawn) [carboxylate derivative]
[6]
  preferential binding to human serum album, relative to CPT: 150 fold

## COc1cc([C@@H]2c3cc4c(cc3[C@@H](O[C@@H]3O[C@@H]5CO[C@@H](C)O[C@H]5[C@H](O)[C@H]3O)[C@H]3COC(=O)[C@H]23)OCO4)cc(OC)c1O [etoposide]
[1]; HCT-116, 48 h, 0.1 μM
  viability at 0.1 µM: 102%
[1]; HCT-116, 48 h, 1.0 μM
  viability at 1 µM: 89%
[1]; HCT-116, 48 h, 10 μM
  viability at 10 µM: 29%
[2]; [11]
  viability at 0.1 µM: 95%
[2]; [12]
  viability at 1 µM: 73%
[2]; [13]
  viability at 10 µM: 47%

## CCc1c2c(nc3ccc(OC(=O)N4CCC(N5CCCCC5)CC4)cc13)-c1cc3c(c(=O)n1C2)COC(=O)[C@]3(O)CC [irinotecan, Irinotecan]
[4]
  Lactone ring stability: <50%
[7]; D0, 3, 7, 10, 14, 17
  RTV22: 4.9 ± 1.3
[7]; D0, 3, 7, 10, 14, 17, end
  Animal body-weight (g_) End: 18.7 ± 1.7 g
[8]; D0, 3, 7, 10, 14, 17
  RTV22: 1.9 ± 0.4
[8]; D0, 3, 7, 10, 14, 17, end
  Animal body-weight (g_) End: 20.6 ± 1.4 g
[8]; D0, 3, 7, 10, 14, 17, start
  Animal body-weight (g_) Start: 19.0 ± 0.8 g
[5]
  solubility: 1000 µg/mL (≈ 1700 µM)
[2]; [14]
  viability at 10 µM: > 30%

## Topotecan
[9]; D2, 6, 10
  RTV11: 25.3 ± 14.8
  T11/C11 (%): 62.7%
[9]; D2, 6, 10, end (Day 11)
  Animal body-weight (g_) End: 19.2 ± 0.9 g
[9]; D2, 6, 10, start
  Animal body-weight (g_) Start: 21.0 ± 1.6 g
[4]
  Lactone ring stability: <50%
[1]; 0.1 μM
  HCT116 cell viability after drug treatment for 48 hours: 26%
[1]; 1.0 μM
  HCT116 cell viability after drug treatment for 48 hours: 2%
[1]; 10 μM
  HCT116 cell viability after drug treatment for 48 hours: 6%
[10]; NCI-H446 nude mice, i.v., 6 administrations
  MTD (Maximum Toxicity Dosage): 10 mg/kg
[10]; WQ1001 40 mg/kg Group, topotecan 10 mg/kg Group, to D22
  animal death: no animal death appeared
[10]; WQ1001 10, 20 and 40 mg/kg, topotecan 10 mg/kg, 6 administrations i.v.
  tumor growth: significantly inhibited tumor growth
[10]; end of test (D22), WQ1001 40 mg/kg Group, topotecan 10 mg/kg Group
  body weight change at the end of test: decreased significantly
[10]; [16]
  RTV22: 10.7 ± 4.8
  T22/C22 (%): 49.3%
[10]; topotecan 10 mg/kg i.v., D0, 4, 7, 11, 14, 17, end (D22)
  Animal body-weight (g_) End: 16.4 ± 1.5 g
[10]; topotecan 10 mg/kg i.v., D0, 4, 7, 11, 14, 17, start
  Animal body-weight (g_) Start: 17.6 ± 1.2 g
[5]
  Water-solubility: 1000 µg/mL
[2]; H446 cells, 0.1 μM, 48 hours
  H446 cell viability after drug treatment for 48 hours: 73%
[2]; H446 cells, 1.0 μM, 48 hours
  H446 cell viability after drug treatment for 48 hours: 50%
[2]; H446 cells, 10 μM, 48 hours
  H446 cell viability after drug treatment for 48 hours: 25% and 23%
[2]; [15]
  Cancer cell viability: >30%
[3]; 0.1 μM
  MDAMB231 cell viability after drug treatment: 68%
[3]; 1.0 μM
  MDAMB231 cell viability after drug treatment: 50%
[3]; 10 μM
  MDAMB231 cell viability after drug treatment: 23%
